Results as given in patent publication US20080021015A1, “Use as medicine of a compound restoring active principles in vivo” (DOSPHARMA, priority 2000, published 2008).
Structures can show the parent of a compound that is named as a salt.

What was measured:
[1] = rat, in vivo, po, 50 mg/kg
[2] = test system: rats treated with streptozotocin; experiment: Antidiabetic activity in rats made diabetic with streptozotocin; assay type: in vivo, rat; settings: streptozotocin (50 mg/kg, IP) rats; for hyperglycaemia after treatment: after administration of 30 mg/kg; for hyperglycaemia before treatment: starting value, 30 mg/kg group
Description: (§1) The antidiabetic activity was studied, from the pharmacological point of view, on two models of rats made diabetic.
The first model consisted in treating the rats with streptozotocin (50 mg/kg, IP), this being a compound which induces an increase in glycaemia, which increases from 5.5 mM to 12-14 mM in 21 days.

primary hepatocytes = experiment: In vitro toxicity assay on primary hepatocytes
Description: A method for culturing primary hepatocytes over a period of 96 hours is used (see Biochemical Pharmacology, vol. 50, 1995, pp. 775-780). The hepatocytes are isolated in situ by collagen profusion. They are then placed in a Williams medium supplemented with foetal calf serum, with cortisol and with glutamine, in a proportion of 1 million cells per well. Increasing and toxic concentrations of A and C, and of A′ ? […] C′ are then added to each well. Samples are taken up after 6 h, 12 h, 24 h, 48 h and 96 h and the viability of the cells is determined with a methylene blue test, by albumin expression, by hepatocyte apoptosis and by measuring cytochrome P450 activity.

[3] = test system: rats given fructose at 10% in the drinking water; settings: fructose 10% in drinking water, equivalent dose of metformin base
Description: as §1
The second study is carried out with the administration of fructose at 10% in the drinking water of the rats.

concentration peak [1] [ng/mL] | time of concentration peak [1] [min] | Compound | hyperglycaemia after treatment [2] [mM] | hyperglycaemia before treatment [2] [mM] | toxic dose (primary hepatocytes) | antidiabetic activity compared with metformin alone [3] | effects on the microcirculation (hamster cheek pouch)
3900 | ≤ 90 | CN(C)C(=N)N=C(N)N [metformin hydrochloride] |  |  |  |  | 
 |  | CN(C)C(=N)NC(=N)N [metformin, N,N-dimethylimidodicarbonimidic diamide] | 9.85 | 12.11 | 10^−2 M |  | 
 |  | arginine hemisuccinimide-metformin hemisuccinate | 7.56 | 12.66 |  | significantly more active than the metformin alone | reproduces at least the effects of the two active principles on the microcirculation
